From US9765085B2, “SHIP1 modulators and methods related thereto” (Aquinox Pharmaceuticals (Canada) Inc., priority 2013, dated 2017)

biological target: T1, His-hSHIP1 enzyme (Homo sapiens, UniProt Q92835); experiment: His-hSHIP1 activity (phosphatase assay, IP4 substrate, Biomol Green); format: biochemical; design: key: +++: higher than reference or reference - 15%; ++: reference - 16% to reference - 30%; +: reference - 31% or lower; −: inhibitor; conditions: ratio of initial velocities (IP4 25/IP4 250 μM final) compared with a reference SHIP1 activator; 37° C.
T1 construct: His
T1 sequence (Q92835 1-1189): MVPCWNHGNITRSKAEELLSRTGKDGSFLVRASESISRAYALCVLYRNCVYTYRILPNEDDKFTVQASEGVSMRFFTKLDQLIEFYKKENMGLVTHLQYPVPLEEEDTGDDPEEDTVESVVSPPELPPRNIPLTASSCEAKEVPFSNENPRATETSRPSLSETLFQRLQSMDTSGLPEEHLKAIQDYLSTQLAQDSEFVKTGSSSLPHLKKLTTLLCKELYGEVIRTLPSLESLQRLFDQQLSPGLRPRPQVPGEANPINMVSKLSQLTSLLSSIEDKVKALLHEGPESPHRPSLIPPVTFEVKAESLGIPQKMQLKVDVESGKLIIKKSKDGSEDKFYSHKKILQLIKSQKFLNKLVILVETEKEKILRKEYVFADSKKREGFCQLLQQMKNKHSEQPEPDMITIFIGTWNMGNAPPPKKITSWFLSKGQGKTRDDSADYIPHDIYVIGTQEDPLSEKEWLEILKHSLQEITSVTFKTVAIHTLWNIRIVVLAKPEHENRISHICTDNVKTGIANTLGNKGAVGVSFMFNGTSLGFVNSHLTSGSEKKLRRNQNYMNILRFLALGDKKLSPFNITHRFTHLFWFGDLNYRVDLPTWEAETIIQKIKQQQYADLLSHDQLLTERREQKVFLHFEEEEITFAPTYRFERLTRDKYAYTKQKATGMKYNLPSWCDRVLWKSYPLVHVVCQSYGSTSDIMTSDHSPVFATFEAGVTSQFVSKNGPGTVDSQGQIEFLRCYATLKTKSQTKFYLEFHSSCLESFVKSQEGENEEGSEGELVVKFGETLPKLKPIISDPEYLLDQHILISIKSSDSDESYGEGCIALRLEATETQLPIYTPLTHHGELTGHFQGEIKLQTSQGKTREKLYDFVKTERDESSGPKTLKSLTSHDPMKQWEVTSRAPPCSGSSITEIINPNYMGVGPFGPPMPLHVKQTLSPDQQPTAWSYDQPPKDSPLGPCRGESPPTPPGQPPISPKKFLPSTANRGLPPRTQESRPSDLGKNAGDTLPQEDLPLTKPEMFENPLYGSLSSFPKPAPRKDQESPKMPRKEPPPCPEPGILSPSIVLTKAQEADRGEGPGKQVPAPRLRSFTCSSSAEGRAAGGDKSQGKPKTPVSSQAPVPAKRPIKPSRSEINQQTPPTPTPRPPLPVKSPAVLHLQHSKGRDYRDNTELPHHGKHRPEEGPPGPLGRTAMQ
Protocol: Test compounds are dissolved in 95% ethanol to form stock solutions. Before screening, the stock solutions are diluted with Phosphatase Assay Buffer (20 mM Tris-HCL, 10 mM MgCl2 pH 7.5, 0.02% Tween 20) to form working assay solutions that contain 10% ethanol. The assay is carried out on 96-well microtiter plates using a modified procedure of that reported by Ong et al., Blood 110, 1942-1949, 2007 and Yang et al., Org Lett 7, 1073-1076, 2005, both of which references are incorporated herein by reference in their entirety.
A master mix is prepared that contains 50 μL of His-hSHIP1 enzyme (0.4-1.6 ng/μL final), 25 μL of the substrate, IP4 (25 or 250 μM final), and 50 μL of test compound in 3.3% ethanol ([…]). Control blanks are also prepared by replacing His-hSHIP1 enzyme, IP4, or test compounds with Phosphate Assay Buffer. […] Each reaction component is preincubated at 37° C. for 30 min before adding to a 96-well microtiter plate. The master mix is then incubated at 37° C. At time 0, 20, 25 and 30 min, 25 μL of the master mix is removed and transferred to a new 96-well microtiter plate, to which 100 μL of Biomol Green Reagent is added to stop the reaction. After incubating the mixture for 20 min at room temperature for color development, the absorbance is read with SpectraMax Plus 96-well plate reader at a wavelength of 650 nm. Phosphate released is plotted against time to calculate the initial velocities (i.e., slope of the graph) at each IP4 concentration. The initial velocities are baseline corrected and the ratio of initial velocities (IP425/IP4250) is calculated and used to rate the test compounds.
The compound numbers in Table 2 correspond to the compound numbers in Table 1 above. Scoring of the compound is expressed as follows: […]

Row | SMILES | Scoring (Initial Velocity Ratio)
1 | C[C@]1([C@H]2CC[C@@]3(C)[C@@H](CC[C@@]3(O)c3ccccc3)[C@@H]2CO)CC[C@H](O)C[C@@H]1CO [compound 26, (1S,3aS,4R,5S,7aS)-5-((1R,2S,4S)-4-hydroxy-2-(hydroxymethyl)-1-methylcyclohexyl)-4-(hydroxymethyl)-7a-methyl-1-phenyloctahydro-1H-inden-1-ol] | −
2 | C#C[C@]1(O)CC[C@H]2[C@H](CO)[C@@H]([C@@]3(C)CC[C@H](O)C[C@@H]3CO)CC[C@@]21C [compound 28, (1R,3aS,4R,5S,7aS)-1-ethynyl-5-((1R,2S,4S)-4-hydroxy-2-(hydroxymethyl)-1-methylcyclohexyl)-4-(hydroxymethyl)-7a-methyloctahydro-1H-inden-1-ol] | ++
3 | C[C@]1([C@H]2CC[C@@]3(C)[C@@H](CC[C@@]3(O)c3cccs3)[C@@H]2CO)CC[C@H](O)C[C@@H]1CO [compound 34, (1S,3aS,4R,5S,7aS)-5-((1R,2S,4S)-4-hydroxy-2-(hydroxymethyl)-1-methylcyclohexyl)-4-(hydroxymethyl)-7a-methyl-1-(thiophen-2-yl)octahydro-1H-inden-1-ol] | +
4 | CC(=O)O.CC1(C2CCC3(C)C(CCC3(O)c3ccccc3)C2CN)CCC(O)CC1CO [compound 11, (1S,3aS,4R,5S,7aS)-4-(aminomethyl)-5-((1R,2S,4S)-4-hydroxy-2-(hydroxymethyl)-1-methylcyclohexyl)-7a-methyl-1-phenyloctahydro-1H-inden-1-ol acetate] | −

The next lines start with the values.

Row | Scoring (Initial Velocity Ratio) | SMILES
5 | ++ | C[C@]1([C@H]2CC[C@]3(C)c4ncccc4C[C@H]3[C@@H]2CN)CC[C@H](O)C[C@@H]1CO [compound 9, (1S,3S,4R)-4-((5aS,6R,7S,9aS)-6-(aminomethyl)-9a-methyl-5a,6,7,8,9,9a-hexahydro-5H-indeno[1,2-b]pyridin-7-yl)-3-(hydroxymethyl)-4-methylcyclohexanol]
6 | + | C=C1CC[C@H]2[C@H](CO)[C@@H]([C@@]3(C)Cc4cn[nH]c4C[C@@H]3CO)CC[C@]12C [compound 21, ((3aS,4R,5S,7aS)-5-((5R,6S)-6-(hydroxymethyl)-5-methyl-4,5,6,7-tetrahydro-1H-indazol-5-yl)-7a-methyl-1-methyleneoctahydro-1H-inden-4-yl)methanol]
7 | ++ | C[C@]1([C@H]2CC[C@]3(C)C(c4ccccc4)=CC[C@H]3[C@@H]2CO)CC[C@H](O)C[C@@H]1CO [compound 25, (1S,3S,4R)-3-(hydroxymethyl)-4-((3aS,6S,7R,7aS)-7-(hydroxymethyl)-3a-methyl-3-phenyl-3a,4,5,6,7,7a-hexahydro-1H-inden-6-yl)-4-methylcyclohexanol]
8 | + | C[C@]1([C@H]2CC[C@]3(C)C(c4ccco4)=CC[C@H]3[C@@H]2CO)CC[C@H](O)C[C@@H]1CO [compound 30, (1S,3S,4R)-4-((3aS,6S,7R,7aS)-3-(furan-2-yl)-7-(hydroxymethyl)-3a-methyl-3a,4,5,6,7,7a-hexahydro-1H-inden-6-yl)-3-(hydroxymethyl)-4-methylcyclohexanol]
9 | +++ | CC1(C)CCC2=C1CC[C@H]([C@@]1(C)Cc3cnoc3C[C@@H]1CO)[C@H]2CO [compound 23, ((5R,6S)-5-((4R,5S)-4-(hydroxymethyl)-1,1-dimethyl-2,3,4,5,6,7-hexahydro-1H-inden-5-yl)-5-methyl-4,5,6,7-tetrahydrobenzo[d]isoxazol-6-yl)methanol]
